Test results reported in patent US20080194483A1, “GLP-1 (9-36) methods and compositions” (priority 2003, published 2008).
One block for each compound: values may come before it. Where no end group is shown, it is not given here.

Tests used:
hepatocytes = assay type: cell-based
Method: An experiment similar to that described in Example 1 was performed, using hepatocytes rather than endothelial cells.

[1] = system: bovine aortic endothelial cells (BAECs); test: Hyperglycemia-induced intracellular ROS (CM-H2DCFDA) in cultured vascular endothelial cells; assay type: cell-based
Method: Cell culture conditions. For reactive oxygen species (RO) measurement, bovine aortic endothelial cells (BAECs, passage 4-10) were plated in 96 well plates at 100,000 cells/well in Eagle's MEM containing 10% FBS, essential and nonessential amino acids, and antibiotics. Cells were incubated with either 5 mM glucose, 30 mM glucose, 30 mM glucose plus 10 nM GLP-1 (7-36), 30 mM glucose plus 10 nM GLP-1 (7-36), 30 mM glucose plus 10 nM GLP-1 (7-36) plus 10 μM pyrrolidide (a DPP IV inhibitor), 30 mM glucose plus 10 nM GLP-1 (7-36) plus 10 μM pyrrolidide and 100 μM phosphoramidon (a neutral endopeptidase 24.11 inhibitor), and 30 mM glucose plus GLP-1 (9-36) plus 10 nM exendin 9-39, a blocker of the GLP-1 (7-36) receptor. The pyrrolidide, phosphoramidon, and exendin 9-39 were each added to the cells four hours before the addition of the peptides. The ROS measurements were performed 24 hrs later.
Intracellular reactive oxygen species measurements. The intracellular formation of reactive oxygen species was detected using the fluorescent probe CM-H2DCFDA (Molecular Probes). Cells (1×10^5 ml^−1) were loaded with 10 μM CM-H2DCFDDA, incubated for 45 min at 37° C., and analysed in an HTS 7000 Bio Assay Fluorescent Plate Reader (Perkin Elmer) using the HTSoft program. ROS production was determined from an H2O2 standard curve (10-200 nmol ml^−1).

[2] = system: endothelial nitric oxide synthase (eNOS); test: eNOS activity ([3H]L-arginine to [3H]L-citrulline) in cultured vascular endothelial cells; assay type: cell-based, bovine; conditions: BAECs
Method: Cell-culture conditions. For measurement of endothelial nitric oxide activity (eNOS), bovine aortic endothelial cells (BAECs, passage 4-10) were plated in 24 well plates at 200,000 cells /well in Eagle's MEM containing 10% FBS, essential and nonessential amino acids, and antibiotics. Cells were incubated with either 5 mM glucose, 30 mM glucose, 30 mM glucose plus 10 nM GLP-1 (7-36), 30 mM glucose plus 10 nM GLP-1 (7-36) plus 10 μM pyrrolidide (a DPP IV inhibitor) (not shown in FIG. 2), 30 mM glucose plus 10 nM GLP-1 (7-36) plus 10 μM pyrrolidide and 100 μM phosphoramidon (a neutral endopeptidase 24.11 inhibitor), 30 mM glucose+GLP-1 (9-36), and 30 mM glucose plus GLP-1 (9-36) plus 10 nM exendin 9-39, a blocker of the GLP-1 (7-36) receptor. The pyrrolidide, phosphoramidon, and exendin 9-39 were each added to the cells four hours before the addition of the peptides. eNOS activity measurements were performed 48 hrs later. Measurement of eNOS activity. eNOS activity in cells was determined by first incubating cells in L-arginine-deficient, serum-free MEM media for 6 hours. […] The eluate was collected in glass scintillation vials for [^3H]L-citrulline quantitation by liquid scintillation spectroscopy.

[3] = system: human aortic endothelial cells (HAEC); test: Nutrient-induced ROS (CM-H2DCFDA) in human aortic endothelial cells; assay type: cell-based
Method: Cell Culture conditions. Confluent HAECs (passage 1-6) were maintained in EGM2 media containing 0.4% FBS plus growth factor additives. Cells were incubated for varying times with either 5 mM glucose, 12 mM glucose, or 5 mM glucose plus 800 μM oleic acid and 1 mM albumin. In other experiments, cells were incubated with 5 mM glucose, 12 mM glucose, or 5 mM glucose plus 800 μM oleic acid and 1 mM albumin, alone, or with either 100 pM GLP-1 (7-36 NH2), GLP-1 (7-36 NH2)+ the DPPIV inhibitor H-lys(4-nito-Z)-pyrrolidide and the neutral endopeptidase inhibitor phosphoramidon, GLP-1 (9-36 NH2), GLP-1 (9-36 NH2) plus the GLP-1 receptor blocker […], and with GLP-1 (9-36 NH2) with 100× GLP-1 (7-36 NH2) and both DPPIV and NEP inhibitors. Cells were pre incubated for four hrs in cycloheximide (5 ug/ml). In experiments using clotrimazole cells were preincubated for 2.5 hrs in serum free media. Reactive oxygen species quantification. Cells were plated in 96-well cell culture plates. Intracellular reactive oxygen species were detected using the fluorescent probe CM-H2DCFDA (Molecular Probes). Cells were loaded with 10 μM CM-H2DCFDA, incubated for 45 min at 37° C., and analyzed with an HTS 7000 Bio Assay Fluorescent Plate Reader (Perkin Elmer) using the HTSoft program.

rat hepatocytes = test: Gluconeogenesis (glucose production) in isolated rat liver cells; assay type: cell-based; conditions: liver cells of non-diabetic control strain rats, 1000 pM insulin without GLP-1(9-36), 24 hours
Method: Liver cells were isolated from non-diabetic control strain rats and from SDF rats. Single-cell suspensions of hepatocytes were obtained from perfusions using the procedure of Berry and Friend (1969) and the perfusion mixture of […] et al. (1979). The cells were plated on tissue culture plastic for 6 hours at a density of 2×10^5 cells per well in a 24-well culture plate that was pre-coated with rat-tail collagen I. During plating, cells were cultured in RPMI 1640 medium supplemented with 10% FBS, penicillin/streptomycin, 10 μg/ml insulin and 10 μM dexamethasone. After allowing for adherence, the media was changed to RPMI with 5 mM glucose, 0.4% FCS, and no insulin or dexamethasone. The cells were allowed to equilibrate overnight in this low-glucose media. The following morning this media was refreshed, insulin alone, or insulin and GLP-1(9-36) were added and treatment lasted another 24 hours. After stimulation, glucose production was measured by incubating the cells for 6 hours in glucose-free RPMI containing 5 mM each of alanine, valine, glycine, pyruvate and lactate. Glucose was subsequently measured with a Trinder assay (Sigma). Averages were obtained of 4 independent measurements.

- hyperglycemia-induced ROS formation in hepatocytes (hepatocytes): inhibited
Compound: CC[C@H](C)[C@H](NC(=O)[C@H](Cc1ccccc1)NC(=O)[C@H](CCC(=O)O)NC(=O)[C@H](CCCCN)NC(=O)[C@H](C)NC(=O)[C@H](C)NC(=O)[C@H](CCC(N)=O)NC(=O)CNC(=O)[C@H](CCC(=O)O)NC(=O)[C@H](CC(C)C)NC(=O)[C@H](Cc1ccc(O)cc1)NC(=O)[C@H](CO)NC(=O)[C@H](CO)NC(=O)[C@@H](NC(=O)[C@H](CC(=O)O)NC(=O)[C@H](CO)NC(=O)[C@@H](NC(=O)[C@H](Cc1ccccc1)NC(=O)[C@@H](NC(=O)CNC(=O)[C@@H](N)CCC(=O)O)[C@@H](C)O)[C@@H](C)O)C(C)C)C(=O)N[C@@H](C)C(=O)N[C@@H](Cc1c[nH]c2ccccc12)C(=O)N[C@@H](CC(C)C)C(=O)N[C@H](C(=O)N[C@@H](CCCCN)C(=O)NCC(=O)N[C@@H](CCCNC(=N)N)C(N)=O)C(C)C [GLP-1 (9-36)]

Compound: GLP-1 (7-36) (HAEGTFTSDVSSYLEGQAAKEFIAWLVKGR-NH2; UniProt P01275 98-127, looked up, fragment)
- hyperglycemia-induced ROS production when GLP-1 degradation is blocked ([1]; 30 mM glucose, 10 nM peptide plus 10 μM pyrrolidide (DPP IV inhibitor) with or without 100 μM phosphoramidon (FIG. 1, bars 4 and 5)): no effect
- hyperglycemia-induced ROS production ([1]; 30 mM glucose, peptide alone, ROS measured 24 hrs later (FIG. 1)): completely prevents
- hyperglycemia-induced decrease in eNOS activity when GLP-1 (7-36) degradation is blocked ([2]; 30 mM glucose, 10 nM peptide plus 10 μM pyrrolidide and 100 μM phosphoramidon (FIG. 2, bar 4)): no effect
- high glucose-induced ROS in the presence of DPP-4 and neutral endopeptidase 24.11 inhibitors ([3]; 12 mM glucose, 2 hrs, with protease inhibitors): no effect
- effect of 100-fold excess bioactive GLP-1 on ability of GLP-1 [9-36amide] to prevent nutrient-induced ROS ([3]; GLP-1 (9-36 NH2) with 100× GLP-1 (7-36 NH2) and both DPPIV and NEP inhibitors): did not affect

Compound: exendin 9-39 [e9-39]
- effect of GLP-1 receptor blockade on inhibition of hyperglycemia-induced ROS by GLP-1 (9-36) ([1]; 30 mM glucose plus GLP-1 (9-36) plus 10 nM exendin 9-39): no effect
- effect of GLP-1 receptor blockade on GLP-1 (9-36) protection of eNOS activity ([2]; 30 mM glucose plus GLP-1 (9-36) plus 10 nM exendin 9-39 (FIG. 2, bar 6)): no effect
- effect of GLP-1R antagonist on ability of GLP-1 degradation products to prevent glucose-induced ROS ([3]; 12 mM glucose, GLP-1 (9-36 NH2) plus receptor blocker): no effect

Compound: insulin
- gluconeogenesis, % of control levels (rat hepatocytes): 46 % of control levels
